Earlier results in publication PMC12145446, “Development of an AI model for DILI-level prediction using liver organoid brightfield images” (Communications Biology, 2025).

Experiments:
[1] = cited from earlier work; for Label section / Severity class: DILIrank; for Label section: FDA drug label section; for DILIrank: FDA DILIrank category based on clinical data
[2] = peak serum concentration used as dosing reference; source not given; cited from earlier work

## Cc1cn([C@H]2C=C[C@@H](CO)O2)c(=O)[nH]c1=O [Stavudine]
[1]
  Label section: Box warning
  Severity class: 8
  DILIrank: vMost-DILI-Concern
[2]
  Cmax: 776.4 ng/mL

## CCc1ccc(CCOc2ccc(CC3SC(=O)NC3=O)cc2)nc1 (centres unmarked) [Pioglitazone]
[1]
  Label section: Warnings and precautions
  Severity class: 3
  DILIrank: vLess-DILI-Concern
[2]
  Cmax: 1050 ng/mL

## Cc1ccc(C(=O)c2cc(O)c(O)c([N+](=O)[O-])c2)cc1 [Tolcapone]
[1]
  Label section: Box warning (withdrawn)
  Severity class: 8
  DILIrank: vMost-DILI-Concern
[2]
  Cmax: 13000 ng/mL

## CCc1oc2ccccc2c1C(=O)c1cc(Br)c(O)c(Br)c1 [Benzbromarone]
[1]
  Label section: Withdrawn
  Severity class: 8
  DILIrank: vMost-DILI-Concern
[2]
  Cmax: 1840 ng/mL

## CC(=O)O[C@H]1C(=O)[C@@]2(C)[C@H]([C@H](OC(=O)c3ccccc3)[C@]3(O)C[C@H](OC(=O)[C@H](O)[C@@H](NC(=O)c4ccccc4)c4ccccc4)C(C)=C1C3(C)C)[C@]1(OC(C)=O)CO[C@@H]1C[C@@H]2O [Paclitaxel]
[1]
  Label section: Adverse reactions
  Severity class: 4
  DILIrank: vLess-DILI-Concern
[2]
  Cmax: 600 ng/mL

## O=C(O)Cc1ccccc1Nc1c(Cl)cccc1Cl [Diclofenac]
[1]
  Label section: Warnings and precautions
  Severity class: 8
  DILIrank: vMost-DILI-Concern

## CCN(CC)CC(=O)Nc1c(C)cccc1C [Lidocaine]
[1]
  Label section: No match
  Severity class: 0

## CN(Cc1cnc2nc(N)nc(N)c2n1)c1ccc(C(=O)N[C@@H](CCC(=O)O)C(=O)O)cc1 [Methotrexate]
[1]
  Label section: Box warning
  Severity class: 3
  DILIrank: vMost-DILI-Concern
[2]
  Cmax: 351 ng/mL

## CS(=O)(=O)Nc1ccc([N+](=O)[O-])cc1Oc1ccccc1 [Nimesulide]
[1]
  Label section: Withdrawn
  Severity class: 8
  DILIrank: vMost-DILI-Concern
[2]
  Cmax: 6500 ng/mL

## CC(=O)Nc1ccc(O)cc1 [Acetaminophen]
[1]
  Label section: Warnings and precautions

## Cc1nc(Nc2ncc(C(=O)Nc3c(C)cccc3Cl)s2)cc(N2CCN(CCO)CC2)n1 [Dasatinib]
[1]
  Label section: Adverse reactions
  Severity class: 4
  DILIrank: vLess-DILI-Concern
[2]
  Cmax: 129 ng/mL

## CC(c1cc2ccccc2s1)N(O)C(N)=O (centres unmarked) [Zileuton]
[1]
  Label section: Warnings and precautions
  Severity class: 5
  DILIrank: vMost-DILI-Concern
[2]
  Cmax: 3100 ng/mL

## CCc1nn(CCCN2CCN(c3cccc(Cl)c3)CC2)c(=O)n1CCOc1ccccc1 [Nefazodone]
[1]
  Label section: Box warning
  Severity class: 8
  DILIrank: vMost-DILI-Concern
[2]
  Cmax: 434.9 ng/mL

## O=C1CC2(CCCC2)CC(=O)N1CCCCN1CCN(c2ncccn2)CC1 [Buspirone]
[1]
  Label section: Adverse reactions
  Severity class: 3
  DILIrank: Ambiguous DILI-concern
[2]
  Cmax: 1.92 ng/mL

## C[C@H]1COc2c(N3CCN(C)CC3)c(F)cc3c(=O)c(C(=O)O)cn1c23 [Levofloxacin]
[1]
  DILIrank: vMost-DILI-Concern
[2]
  Cmax: 5700 ng/mL

## CC(C)C(=O)Nc1ccc([N+](=O)[O-])c(C(F)(F)F)c1 [Flutamine]
[1]
  Label section: Box warning
  Severity class: 8
  DILIrank: vMost-DILI-Concern
[2]
  Cmax: 100 ng/mL

## COc1ccccc1Oc1c(NS(=O)(=O)c2ccc(C(C)(C)C)cc2)nc(-c2ncccn2)nc1OCCO [Bosentan]
[1]
  Label section: Box warning
  Severity class: 7
  DILIrank: vMost-DILI-Concern
[2]
  Cmax: 2286 ng/mL

## CN(C)CCOC(c1ccccc1)c1ccccc1 [Diphenhydramine]
[1]
  Label section: No match
  Severity class: 0
